These results are taken from US12312599B2, “Methods, compositions, and kits for producing beige adipocytes and treating metabolic disorders” (MaineHealth, priority 2018, dated 2025).

Holding throughout (type): cell-based, human
One assay concerns iPSCs. Briefly: Mesoderm induction of iPSCs: FOXF1 and IRX3 expression. On the procedure: PSCs were cultured in monolayer on hESC-qualified Matrigel-coated plates (Corning) and expanded in NutriStem hPSC XF Medium (Stemgent) and passaged with ReLeSR passaging reagent (STEMCELL Technologies). For mesoderm induction (Day 0), PSC colonies was dissociated with TrypLE cell dissociation reagent (Thermofisher) and plated on Matrigel coated plates in NutriStem medium containing 10 μM Y-27632 Rho kinase inhibitor (Calbiochem). The following day (Day 1), NutriStem medium was replaced with STEMdiff Mesoderm Induction Medium (MIM) (STEMCELL Technologies) and changed each day until day 5.
Note: Only use Y-27632 stock solutions that have been resuspended in DMSO. […] Conduct Mesoderm induction of iPSC in a laminar flow cabinet. • 3. Expand cells in NutriStem hPSC XF Medium overnight and change 100% of the medium without Y-27632 every 24 hours in a laminar flow cabinet for cell culture. When changing media, tilt plate up and allow media to pool at the bottom of wells. Aspirate the pooled medium without touching the surface of the plate. Replace with medium warmed to room temperature by pipetting 2 ml down the side of the wells. Cell Passaging • 1. Expand cell colonies until they have reached 70-80% confluence in high-density areas of the wells. High-density accumulation can occur along the edges of the well as well as the middle. Cells permitted to reach high density will lose their potential for differentiation after multiple passages. • 2. Prior to cell passage, warm cell wash buffer and NutriStem hPSC XF Medium to room temperature. Conduct cell passage in a laminar flow cabinet. • 3. Aspirate NutriStem hPSC XF Medium from wells with vacuum aspirator and wash with PBS without calcium or magnesium. Remove PBS and add 1 ml of ReLeSR reagent to side of well. Agitate plate to allow ReLeSR reagent to spread evenly on the surface. • 4. Aspirate ReLeSR reagent with vacuum aspirator after 30 seconds, which will leave behind a thin film of liquid. Incubate plate at 37° C. for 5-8 minutes undisturbed. • 5. Add fresh NutriStem hPSC XF Medium to wells and gently remove the cell colonies from the plate. Check that most cells have been dislodged from the plate surface with a light microscope. If not, rewash with more medium as needed. • 6. Transfer cell colony suspension in NutriStem hPSC XF Medium to Matrigel coated culture plates for further expansion (see Cell plating and culture above). Generation of iPSC Derived MSCs Mesoderm Induction of iPSC • 1. When iPSCs have reached 70-80% confluence, they will need to be passaged as single cells rather than colonies prior to mesoderm induction (day 0). • 2. Prepare for passage by warming cell wash buffer and NutriStem hPSC XF medium to room temperature and add Y-27632 Rho kinase inhibitor to medium at a final concentration of 10 μM. […]

Assay [1] has as its system iPSC-beige adipocytes. Kind of assay: Fatty acid uptake assay. The conditions noted are these: adipocytes whitened 6 days without rosiglitazone. On the procedure:
Following washes, add secondary antibody diluted at a ratio of 1:1200 and incubate 2 hours at room temperature. • 5. Remove secondary antibody solution and wash 3 times with TBS with Tween 20 (5 minutes per wash). • 6. Develop membrane with Clarity™ Western ECL Substrate and detect using a Bio-Rad ChemiDoc Touch Imaging System. • 7. Quantitation of protein was performed using Image Lab software (Bio-Rad). Fatty Acid Uptake Assay Preparation • 1. Expand and grow iPSC-beige and whitened iPSC-beige adipocytes to full maturity in a 96 well plate (day 12) (see Generation of beige adipocytes above). To whiten iPSC-beige adipocytes for this assay, induce iPSC-MSCs for three days in the induction cocktail as described in the differentiation protocol (see Generation of beige adipocytes above). Following three days of induction, replace beige induction medium with DMEM containing 10% FBS and insulin ([…]). Change 100% of medium every 3 days until full maturity (day 12). • 2. On day 12, replace culture medium with DMEM containing 10% FBS. Change 100% of medium every 2 days for 6 days. • 3. Following 6 days of rest, remove culture medium and replace with […] of serum free DMEM containing 0.2% BSA. Incubate the plate at 37° C. in a 5% CO2 incubator for 1 hour. • 4. After 1 hour, add CL316,243 ([…]) to designated wells. Allow cells to incubate for 2 hours. • 5. […] Quantification and Statistical Analysis

Assay [2] deals with iPSC-beige adipocytes. Briefly: Seahorse XF oxygen consumption after β3-adrenergic stimulation. The settings on record: adipocytes whitened 4 days without rosiglitazone, CL316,243 for 4 hr.
Assay [3] deals with iPSC-beige adipocytes. Kind of assay: UCP1 qPCR after β3-adrenergic stimulation of iPSC-beige adipocytes. On the technique in general: In qPCR the cycle at which signal appears reflects the starting amount.
The next assay relates to FD-MSCs. Kind of assay: Beige adipogenic precursor markers in FD-MSCs (flow cytometry, immunostaining, qPCR). The conditions noted are these: 2 days pretreatment. On the procedure: All assays were performed between 7 and 15 passages. For osteocyte differentiation, mature MSCs were grown in 24 well culture plates to 100% confluency in MesenCult-ACF and induced to differentiate in OsteoLife Complete Osteogenesis Medium (Lifeline Cell Technology) for 21 days prior to staining with Lifeline Alizarin Red Stain to visualize calcium deposition. For chondrocyte differentiation. For beige adipogenic precursor generation, cells were grown in 24 well culture plates to 90% confluence and treated with 5 uM SB413542 (Sigma) and 10 nM human IL-4 (Peprotech) for 2 days. For beige adipogenic induction, adipogenic precursors are differentiated for 3 days with adipogenic medium consisting of T3 (2 nM), insulin (170 nM), rosiglitazone (1 μM), SB413542 (5 uM), IBMX (0.5 mM), dexamethasone (5 μM) and indomethacin (125 μM) in EGM-2 medium (Lonza) supplemented with the BulletKit minus FGF2 (modified from^33). Thereafter, cells are maintained in adipogenic medium without IBMX, dexamethasone and indomethacin. The medium was changed every 3 days and adipocytes were fully differentiated by 9-12 days as determined by lipid accumulation and peak expression of UCP1.
Cell Isolation, Expansion and Differentiation of Interscapular Brown Adipose Tissue Preadipocytes • 1. Prior to adipose cell isolation, warm DMEM, FBS and cell wash buffer to room temperature. • 2. In a laminar flow cabinet for cell culture, place 5 g of adipose tissue on a 100×20 mm dish. Suspend tissue in 1 mL of Adipose Tissue Dissociation Kit enzyme digest cocktail and finely mince with a razorblade. • 3. Transfer cell suspension slurry to a 5 mL polystyrene round bottom tube and add an additional 1.5 mL of enzyme digest cocktail to tube. • 4. Incubate tube at 37° C. on a rotating nutator for 30 minutes. During incubation period, briefly vortex sample for 5 s in 10-minute intervals. • 5. Transfer cells to a 15 mL tube and add 5 mL of DMEM. Filter cell suspension through a 100 μm strainer into a new 15 mL tube and centrifuge at 300 g for 5 minutes to form a pellet. • 6. Remove supernatant and leave behind […] of DMEM. […]
(In general: In flow cytometry, cells or beads pass a laser one at a time.)

Turning to `Cc1c[nH]c(-c2cnc(NCCNc3ccc(C#N)cn3)nc2-c2ccc(Cl)cc2Cl)n1` [CHIR], in the assay on iPSCs (1.5 μM CHIR in combination with VEGF and BMP4), the “FOXF1 protein compared to StemDiff MIM” value is “significant increase”. Also, the “expression of FOXF1 (qPCR)” value with iPSCs (CHIR raised to 5 μM in combination with BMP4 and VEGF) is recorded as “decrease”.
On to `C[C@H](Cc1ccc2c(c1)OC(C(=O)[O-])(C(=O)[O-])O2)NC[C@H](O)c1cccc(Cl)c1.[Na+].[Na+]` [CL316,243], for which the “fatty acid (FA) uptake” value in the assay on iPSC-beige adipocytes [1] is “increased”. Further, the “overall respiration and proton leak” value in the assay on iPSC-beige adipocytes [2] is “increased overall respiration and proton leak”. In addition, the “effect on UCP1 expression” value in the assay with iPSC-beige adipocytes [3] (during initial differentiation, in the presence of rosiglitazone) is reported as “masked or inhibitory”. For the same molecule, the UCP1 expression entry is on record as “increased” with iPSC-beige adipocytes [3] (during initial differentiation, without rosiglitazone) and “increased expression” in the assay on iPSC-beige adipocytes [3] (mature iPSC-beige adipocytes, CL316,243 1 μM, 4 hr).

B1: IL-4: human IL-4 (Peprotech), used at 10 nM (protein, UniProt P05112 25-153, looked up)
Interleukin-4: HKCDITLQEIIKTLNSLTEQKTLCTELTVTDIFAASKNTTEKETFCRAATVLRQFYSHHEKDTRCLGATAQQFHRHKQLIRFLKRLDRNLWGLAGLNSCPVKEANQSTLENFLERLKTIMREKYSKCSS
As to B1, the “transcription of beige adipogenic precursor markers PDGFRα and EBF2” value with FD-MSCs is “little effect”.
